Where “and” joins values, the source holds several entries; their conditions need not be identical. Identical values can stand only once. Entries after “also recorded” stand apart in the source; their conditions may differ. Like-named read-outs stand apart in the source and are kept apart here. Marks after values point to notes of the source that are not given here.
How the values were obtained:
[1] = target: T1, C. ensiformis urease (CEU) (Canavalia ensiformis, UniProt P07374); test: biochemical; conditions: triplicate; for inhibition at 2000 µM: read-out: %I ± SD (inhibitory percentage against CEU), test substance at 2.00 mM; for %I ± SD (inhibitory percentage against CEU): test substance at 2.00 mM; for IC50: 0.2-2.0 mM
T1 construct: purchased Merck (Sigma-Aldrich) Jack bean type III (CAS 9002-13-5)
Description: The in vitro inhibitory activity of C. ensiformis urease was conducted using the indophenol reaction, also known as the Berthlot Reaction. Commercially purchased urease from Merck (Sigma-Aldrich), Jack bean type III (CAS 9002–13–5), was utilized, and the methodology was adapted from Khan et al. (2017).
(§1) The assays were performed in triplicate on a 96-well plate, as described by our research group. , The procedure involved adding 100 μL of urea (10 mM), 55.0 μL of sodium phosphate buffer solution (100 mM, pH 7.4) supplemented with EDTA (1 mM), and 10 μL of the test substance at 2.00 mM for inhibition percentage assays, previously dissolved in methanol. Subsequently, 25.0 μL of urease enzyme solution (0.0035 mM) was added, and the reaction mixture was incubated at 45–50 °C for 30 min. After incubation, 40.0 μL of phenol reagent (1% phenol and 0.05% sodium nitroprusside) and 40.0 μL of alkaline reagent (1.0% NaOH and […]) were added. The reaction rested for 15 min, and the absorbance was read at 630 nm using a Loccus model LMR-96i UV–visible microplate reader.
Thiourea (2.00 mM) served as the standard inhibitor.
To determine half of the maximum inhibitory concentration (IC50), substances LaSMMed 42, LaSMMed 122–126, and the thiourea control were tested at different concentrations (0.2, 0.4, 0.8, 1.0, 1.4, and 2.0 mM). The IC50 values were calculated using GraphPad Prism 8.0.2, employing a dose–response curve.

[2] = Solubility under the urease assay conditions; format: physicochemical; conditions: urease assay medium
Description: as §1

[3] = target: T1, C. ensiformis urease (CEU); test: Enzyme kinetics on C. ensiformis urease (Michaelis–Menten, Lineweaver–Burk plots); format: biochemical; conditions: for Vmax: CEU kinetic parameter with the compound; for Ki: Lineweaver–Burk, compound 0.50 and 0.25 mM; for Alfa (α): mixed inhibitors; for Inhibition type (mechanism of action): Lineweaver–Burk plots
Description: Enzyme kinetics were studied following previous work by our research group. , The same reaction mixture was applied to determine inhibitory activity, and the IC50 was adopted to study enzyme kinetics in C. ensiformis urease. However, only two concentrations of the test substance were used (0.50 and 0.25 mM), along with five different concentrations of urea substrate (0.66, 1.00, 1.50, 2.00, and 2.50 mM) for each sample. The absorbance of the reaction mixture was recorded at 630 nm using a Loccus model LMR-96i UV–visible microplate reader. Michaelis–Menten (nonlinear regression) and Lineweaver–Burk (linear regression) plots, as well as the determination of inhibition constants (K i ), K m, α, and V max, were made using GraphPad Prism software (version 8.0.2). Enzymatic activity was calculated using an ammonium chloride calibration curve. One unit of enzymatic activity (U) is the amount of enzyme capable of releasing 1 μmol of ammonia per minute of reaction (U = 1 μmol NH4 ^+ min^–1 μmol enzyme^–1). The assays were performed in triplicate.

T1 sequence (P07374 whole entry, looked up): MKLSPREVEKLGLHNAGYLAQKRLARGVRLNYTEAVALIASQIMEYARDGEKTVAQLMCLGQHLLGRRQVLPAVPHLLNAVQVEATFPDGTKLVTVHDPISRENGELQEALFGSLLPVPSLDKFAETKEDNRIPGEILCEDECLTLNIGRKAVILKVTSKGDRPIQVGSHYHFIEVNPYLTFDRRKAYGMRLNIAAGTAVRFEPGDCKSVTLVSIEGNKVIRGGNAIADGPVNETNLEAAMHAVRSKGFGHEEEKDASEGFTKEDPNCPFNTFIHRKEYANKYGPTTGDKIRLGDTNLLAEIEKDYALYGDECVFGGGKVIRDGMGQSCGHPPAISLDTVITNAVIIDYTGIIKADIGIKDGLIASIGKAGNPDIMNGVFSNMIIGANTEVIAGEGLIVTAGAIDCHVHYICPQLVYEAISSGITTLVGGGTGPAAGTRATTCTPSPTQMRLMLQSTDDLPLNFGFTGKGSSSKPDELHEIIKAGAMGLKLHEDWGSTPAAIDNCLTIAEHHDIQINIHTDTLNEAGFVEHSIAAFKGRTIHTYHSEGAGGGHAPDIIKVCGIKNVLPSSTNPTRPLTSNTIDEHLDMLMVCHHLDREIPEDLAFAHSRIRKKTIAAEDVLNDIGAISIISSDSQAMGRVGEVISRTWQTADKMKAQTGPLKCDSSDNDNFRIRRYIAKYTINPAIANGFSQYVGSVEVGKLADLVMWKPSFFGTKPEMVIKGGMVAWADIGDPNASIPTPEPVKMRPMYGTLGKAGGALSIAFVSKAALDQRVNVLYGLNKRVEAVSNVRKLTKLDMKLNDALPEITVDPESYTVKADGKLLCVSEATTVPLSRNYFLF

SMILES	inhibition at 2000 µM [1] [%]	%I ± SD (inhibitory percentage against CEU) [1]	IC50 ([1]; IC50 ± SD)	Vmax [3] [µmol/min]	Ki [3]	further results
CNC(=S)NC(=O)/C=C/c1ccccc1 [LaSMMed 37]	30 to 40	33.53 ± 1.06^c %	–	–	–	–
CCCCCCNC(=S)NC(=O)/C=C/c1ccccc1 [LaSMMed 40]	–	39.34 ± 1.72^c %	–	–	–	–
NC(=S)NC(=O)/C=C/c1ccccc1 [LaSMMed 42]	82	82.37 ± 0.34^d %	–	–	–	–
COc1ccc(NC(=S)NC(=O)/C=C/c2ccccc2)cc1 [LaSMMed 44]	–	–	–	–	–	Solubility under the tested conditions [2]: insoluble
O=C(/C=C/c1ccccc1)NC(=S)Nc1ccc(F)cc1 [LaSMMed 45]	24	23.98 ± 1.44^e %	–	–	–	–
Cc1ccc(NC(=S)NC(=O)/C=C/c2ccccc2)cc1 [LaSMMed 46]	–	13.04 ± 2.46^f %	–	–	–	–
NC(=S)Nc1ccc(Cl)cc1 [LaSMMed 122]	87.6 ± 1.72	–	~575 µM and 575 µM	735.50	90 µM and 89 µM	Alfa (α) [3]: 6.00
NC(=S)Nc1ccc(Br)cc1 [LaSMMed 123]	86.18 ± 0.75	–	493 ± 7 µM	741.30	110 µM	Alfa (α) [3]: 9.75
NC(=S)Nc1ccc([N+](=O)[O-])cc1 [LaSMMed 124]	88.3 ± 0.26	–	464 ± 3 µM	733.50	130 µM	Alfa (α) [3]: 6.13
COc1ccc(NC(N)=S)cc1 [LaSMMed 125]	84	84.56 ± 1.23^b %	510 ± 19 µM	737.50	80 µM	Inhibition type (mechanism of action) [3]: competitive inhibition; also recorded: competitive inhibitor
Cc1ccc(NC(N)=S)cc1 [LaSMMed 126]	87.86 ± 0.48	–	568 ± 22 µM	732.30	100 µM	Inhibition type (mechanism of action) [3]: mixed-type inhibition; Alfa (α) [3]: 4.88
NC(N)=S [Thiourea]	–	84.12 ± 0.84^d %	–	–	–	IC50 ([1]; read-out: IC50 ± SD): 504 ± 25 µM; %I ± SD (inhibitory percentage against CEU) ([1]; listed as thiourea): 84%
CCCCCCNC(=S)NC(=O)/C=C/c1ccccc1 [compound 40]	30 to 40	–	–	–	–	–
Cc1ccc(NC(=S)NC(=O)/C=C/c2ccccc2)cc1 [compound 46]	13	–	–	–	–	–
NC(=S)Nc1ccc([N+](=O)[O-])cc1 [compound 124]	–	–	–	–	~100 µM	–
Cc1ccc(NC(N)=S)cc1 [compound 126]	–	–	~575 µM	–	~100 µM	–

Source: paper PMC12138827, “Molecular Modeling and In Vitro Evaluation of Thioureas and Arylthioureas as Urease Inhibitors” (ACS Omega, 2025)
